The source made the active and inactive calls.
Key:
[1] = target: Luciferin 4-monooxygenase (Photinus pyralis, UniProt P08659); experiment: firefly luciferase enzyme inhibitors, dose response, biochemical, luminescence (AID 1891)
[2] = Luminescence Cell-Based Dose Confirmation HTS to Identify Inhibitors of Platelet Dense Granule Release. [Related pubchem assays: 1663 (Primary HTS), 1678 (Summary of Project)]; format: functional
[3] = target: Heat shock protein HSP 90-alpha (Homo sapiens, UniProt P07900); format: functional, organism-based
[4] = target: T1, Calpain-2 catalytic subunit (Sus scrofa, UniProt P43367); experiment: pig calpain II inhibitor potency, dose response, biochemical, fluorogenic peptide substrate (AID 1420); format: functional
T1 sequence (P43367 whole entry): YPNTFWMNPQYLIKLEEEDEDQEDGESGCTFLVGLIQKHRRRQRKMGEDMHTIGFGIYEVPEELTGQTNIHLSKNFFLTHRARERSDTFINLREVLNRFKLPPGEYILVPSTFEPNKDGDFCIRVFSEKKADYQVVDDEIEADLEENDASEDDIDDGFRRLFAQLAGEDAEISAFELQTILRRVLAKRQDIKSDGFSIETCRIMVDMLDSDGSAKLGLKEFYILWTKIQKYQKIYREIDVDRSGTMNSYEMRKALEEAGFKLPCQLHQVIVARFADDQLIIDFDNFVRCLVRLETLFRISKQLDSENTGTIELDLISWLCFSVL

[5] = target: T2, Heat shock factor protein 1 (Mus musculus, UniProt P38532); experiment: HSF1 potentiators in luciferase reporter cells, confirmation, cell-based, NIH3T3, luminescence, dose retest (AID 435004); format: functional;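 note: stress induced by proteasome inhibitor MG132 added 30 min after compound; luciferase reporter driven by HSF1 response element in NIH3T3 cells; actives raise luminescence as potentiators of the MG132 stress response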
T2 sequence (P38532 whole entry): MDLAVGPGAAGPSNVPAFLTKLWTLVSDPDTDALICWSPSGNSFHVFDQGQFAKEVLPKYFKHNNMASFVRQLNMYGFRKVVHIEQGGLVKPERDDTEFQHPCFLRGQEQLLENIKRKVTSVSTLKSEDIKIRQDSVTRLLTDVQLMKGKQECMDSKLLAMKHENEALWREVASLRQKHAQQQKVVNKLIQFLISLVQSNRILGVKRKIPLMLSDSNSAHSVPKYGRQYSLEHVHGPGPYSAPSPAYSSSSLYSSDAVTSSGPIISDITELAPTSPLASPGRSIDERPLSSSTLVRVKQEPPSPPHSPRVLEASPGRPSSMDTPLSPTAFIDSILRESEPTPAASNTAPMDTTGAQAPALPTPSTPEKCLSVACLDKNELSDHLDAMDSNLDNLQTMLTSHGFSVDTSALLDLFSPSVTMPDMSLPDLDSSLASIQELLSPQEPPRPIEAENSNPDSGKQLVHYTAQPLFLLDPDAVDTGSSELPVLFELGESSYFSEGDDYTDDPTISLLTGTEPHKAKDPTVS

[6] = target: T3, Ubiquitin-conjugating enzyme E2 N (Homo sapiens, UniProt P61088); format: functional;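 note: Dose-response confirmation in a TR-FRET assay detecting UBC13-driven polyubiquitin chain formation, inhibition measured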
T3 sequence (P61088 whole entry): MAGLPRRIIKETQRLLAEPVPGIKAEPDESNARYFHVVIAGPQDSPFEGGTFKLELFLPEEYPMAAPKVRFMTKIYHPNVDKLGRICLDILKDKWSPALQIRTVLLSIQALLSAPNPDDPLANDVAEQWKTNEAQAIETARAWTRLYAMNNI

[7] = microbe, parasite or virus in culture; format: functional; settings: Mycobacterium tuberculosis
[8] = P. falciparum Dd2 growth inhibitors, dose response, SYBR Green, cherry-picked samples (AID 1159567); format: functional, cell-based
[9] = system: H9c2; experiment: cells; format: functional, cell-based; settings: Rattus norvegicus, H9c2, Myocardium;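 note: confirmatory concentration-response retest of ultra-high-throughput screening hits for modulation of myocardial damage; cell death induced by hydrogen peroxide oxidative stress; compound pretreatment for 60 min then peroxide exposure for 2 h; potency is for protecting the cells against peroxide damage rather than for killing them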
[10] = Luminescence Cell-Based Dose Retest to Confirm Inhibitors of Cancer Stem Cells. [Related pubchem assays (depositor defined):AID2717, AID2721]; format: functional; settings: Homo sapiens
[11] = target: Cytochrome P450 2C9 (Homo sapiens, UniProt P11712)
[12] = target: T4, Cytochrome P450 1A2 (Homo sapiens, UniProt P05177);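 note: PubChem cytochrome P450 panel assay, CYP1A2 panel member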
T4 sequence (P05177 whole entry): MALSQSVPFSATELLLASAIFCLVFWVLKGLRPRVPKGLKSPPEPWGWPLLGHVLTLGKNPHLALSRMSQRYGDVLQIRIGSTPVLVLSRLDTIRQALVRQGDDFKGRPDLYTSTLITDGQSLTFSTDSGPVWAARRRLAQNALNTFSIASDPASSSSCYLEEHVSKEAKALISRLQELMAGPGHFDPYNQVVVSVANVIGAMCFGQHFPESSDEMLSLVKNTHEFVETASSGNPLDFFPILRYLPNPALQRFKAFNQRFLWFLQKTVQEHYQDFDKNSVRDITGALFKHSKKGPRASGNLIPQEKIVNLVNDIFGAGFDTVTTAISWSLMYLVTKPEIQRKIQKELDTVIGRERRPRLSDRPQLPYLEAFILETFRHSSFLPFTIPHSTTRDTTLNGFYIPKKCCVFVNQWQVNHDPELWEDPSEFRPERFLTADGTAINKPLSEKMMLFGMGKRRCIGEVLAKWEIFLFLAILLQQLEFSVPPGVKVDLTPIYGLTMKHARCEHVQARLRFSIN

[13] = target: Cytochrome P450 2D6 (Homo sapiens, UniProt P10635);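 note: CYP2D6 member of a cytochrome P450 panel assay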
[14] = inhibitors of firefly luciferase expression or activity, dose response, H4 neuroglioma cells, luminescence (AID 1990); format: functional, cell-based
[15] = inhibitors of SNCA 5'UTR-driven reporter translation, confirmation, H4 neuroglioma cells, luminescence (AID 1988); format: functional, cell-based
[16] = Luminescence Cell-Based Dose Response HTS to Identify Inhibitors of 5'UTR Stem-Loop Driven Prion Protein mRNA Translation in H4 Neuroglioblastoma Cells. [Related pubchem assays: 1827 (Project Summary), 1813 (Primary HTS)]; format: functional
[17] = target: Fatty acid synthase (Homo sapiens, UniProt P49327); experiment: FAS thioesterase domain inhibitors, dose response, biochemical, kinetic fluorescence intensity (AID 624326); format: functional;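 note: rate of fluorescence rise from hydrolysis of a fluorogenic O-methyl fluorescein ester substrate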
[18] = system: Streptococcus sp. 'group A'; experiment: growth inhibition of control SK(-) GAS strain, dose response, counter-screen for streptokinase expression inhibitor project, luminescence, kanamycin, BacTiterGlo, confirmation (AID 1900); format: functional, organism-based
[19] = system: Streptococcus; experiment: Group A Streptococcus viability loss, dose response, counter-screen for streptokinase expression inhibitor project, luminescence, BacTiterGlo (AID 1915); format: functional, organism-based;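 note: potency for reduction of bacterial viability or growth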
[20] = target: Cytochrome P450 3A4 (Homo sapiens, UniProt P08684);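 note: CYP3A4 tested as one member of a cytochrome P450 panel screen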
[21] = target: Cytochrome P450 2C19 (Homo sapiens, UniProt P33261); experiment: Cytochrome panel assay with activity outcomes. Panel member name: p450-cyp2c19 Compounds with AC50 equal or less than 10 uM are considered active; format: functional; settings: read-out: AC50
Chain of Cytochrome P450 2C19 (P33261 whole entry): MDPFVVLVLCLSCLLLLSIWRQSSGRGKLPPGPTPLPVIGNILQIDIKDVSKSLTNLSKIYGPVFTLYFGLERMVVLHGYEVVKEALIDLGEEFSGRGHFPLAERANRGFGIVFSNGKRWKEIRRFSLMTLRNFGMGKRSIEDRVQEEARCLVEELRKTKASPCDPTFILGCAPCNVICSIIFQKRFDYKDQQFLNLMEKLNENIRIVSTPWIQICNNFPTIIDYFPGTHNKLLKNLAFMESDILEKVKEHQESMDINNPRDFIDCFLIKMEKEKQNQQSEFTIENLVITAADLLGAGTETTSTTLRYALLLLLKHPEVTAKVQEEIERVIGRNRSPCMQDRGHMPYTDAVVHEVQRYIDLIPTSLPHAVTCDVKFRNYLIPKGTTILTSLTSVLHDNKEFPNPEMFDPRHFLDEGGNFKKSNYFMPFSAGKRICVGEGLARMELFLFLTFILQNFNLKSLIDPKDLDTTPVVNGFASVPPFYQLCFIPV

Chain of Luciferin 4-monooxygenase (P08659 whole entry): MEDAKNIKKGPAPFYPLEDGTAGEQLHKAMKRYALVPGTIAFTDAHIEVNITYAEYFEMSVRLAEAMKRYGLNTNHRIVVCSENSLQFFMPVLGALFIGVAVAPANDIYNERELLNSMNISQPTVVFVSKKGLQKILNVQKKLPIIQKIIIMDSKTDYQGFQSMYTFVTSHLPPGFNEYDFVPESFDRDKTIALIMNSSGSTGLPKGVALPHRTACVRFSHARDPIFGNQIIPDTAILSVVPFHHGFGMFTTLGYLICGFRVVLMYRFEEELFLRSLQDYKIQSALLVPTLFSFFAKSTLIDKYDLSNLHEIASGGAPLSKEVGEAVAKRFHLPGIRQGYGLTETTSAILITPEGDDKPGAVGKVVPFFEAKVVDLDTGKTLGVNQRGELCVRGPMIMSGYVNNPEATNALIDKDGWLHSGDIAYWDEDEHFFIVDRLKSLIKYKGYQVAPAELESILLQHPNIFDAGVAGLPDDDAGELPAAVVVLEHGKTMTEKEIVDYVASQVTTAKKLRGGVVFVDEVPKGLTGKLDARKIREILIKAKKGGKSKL
Chain of Cytochrome P450 2D6 (P10635 whole entry): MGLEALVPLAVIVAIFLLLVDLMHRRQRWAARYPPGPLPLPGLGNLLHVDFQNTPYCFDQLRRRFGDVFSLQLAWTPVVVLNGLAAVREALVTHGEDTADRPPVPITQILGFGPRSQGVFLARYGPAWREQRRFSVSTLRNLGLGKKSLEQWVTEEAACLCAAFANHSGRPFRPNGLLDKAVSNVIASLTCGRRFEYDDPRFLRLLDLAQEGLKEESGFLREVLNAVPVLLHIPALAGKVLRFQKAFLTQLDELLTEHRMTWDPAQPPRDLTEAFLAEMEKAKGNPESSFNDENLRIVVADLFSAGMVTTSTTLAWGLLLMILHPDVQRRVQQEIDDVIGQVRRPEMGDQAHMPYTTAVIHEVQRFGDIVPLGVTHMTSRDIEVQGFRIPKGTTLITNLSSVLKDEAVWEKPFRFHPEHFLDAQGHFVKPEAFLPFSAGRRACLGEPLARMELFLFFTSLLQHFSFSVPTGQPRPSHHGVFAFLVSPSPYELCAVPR
Chain of Fatty acid synthase (P49327 whole entry, the tested form may be a part): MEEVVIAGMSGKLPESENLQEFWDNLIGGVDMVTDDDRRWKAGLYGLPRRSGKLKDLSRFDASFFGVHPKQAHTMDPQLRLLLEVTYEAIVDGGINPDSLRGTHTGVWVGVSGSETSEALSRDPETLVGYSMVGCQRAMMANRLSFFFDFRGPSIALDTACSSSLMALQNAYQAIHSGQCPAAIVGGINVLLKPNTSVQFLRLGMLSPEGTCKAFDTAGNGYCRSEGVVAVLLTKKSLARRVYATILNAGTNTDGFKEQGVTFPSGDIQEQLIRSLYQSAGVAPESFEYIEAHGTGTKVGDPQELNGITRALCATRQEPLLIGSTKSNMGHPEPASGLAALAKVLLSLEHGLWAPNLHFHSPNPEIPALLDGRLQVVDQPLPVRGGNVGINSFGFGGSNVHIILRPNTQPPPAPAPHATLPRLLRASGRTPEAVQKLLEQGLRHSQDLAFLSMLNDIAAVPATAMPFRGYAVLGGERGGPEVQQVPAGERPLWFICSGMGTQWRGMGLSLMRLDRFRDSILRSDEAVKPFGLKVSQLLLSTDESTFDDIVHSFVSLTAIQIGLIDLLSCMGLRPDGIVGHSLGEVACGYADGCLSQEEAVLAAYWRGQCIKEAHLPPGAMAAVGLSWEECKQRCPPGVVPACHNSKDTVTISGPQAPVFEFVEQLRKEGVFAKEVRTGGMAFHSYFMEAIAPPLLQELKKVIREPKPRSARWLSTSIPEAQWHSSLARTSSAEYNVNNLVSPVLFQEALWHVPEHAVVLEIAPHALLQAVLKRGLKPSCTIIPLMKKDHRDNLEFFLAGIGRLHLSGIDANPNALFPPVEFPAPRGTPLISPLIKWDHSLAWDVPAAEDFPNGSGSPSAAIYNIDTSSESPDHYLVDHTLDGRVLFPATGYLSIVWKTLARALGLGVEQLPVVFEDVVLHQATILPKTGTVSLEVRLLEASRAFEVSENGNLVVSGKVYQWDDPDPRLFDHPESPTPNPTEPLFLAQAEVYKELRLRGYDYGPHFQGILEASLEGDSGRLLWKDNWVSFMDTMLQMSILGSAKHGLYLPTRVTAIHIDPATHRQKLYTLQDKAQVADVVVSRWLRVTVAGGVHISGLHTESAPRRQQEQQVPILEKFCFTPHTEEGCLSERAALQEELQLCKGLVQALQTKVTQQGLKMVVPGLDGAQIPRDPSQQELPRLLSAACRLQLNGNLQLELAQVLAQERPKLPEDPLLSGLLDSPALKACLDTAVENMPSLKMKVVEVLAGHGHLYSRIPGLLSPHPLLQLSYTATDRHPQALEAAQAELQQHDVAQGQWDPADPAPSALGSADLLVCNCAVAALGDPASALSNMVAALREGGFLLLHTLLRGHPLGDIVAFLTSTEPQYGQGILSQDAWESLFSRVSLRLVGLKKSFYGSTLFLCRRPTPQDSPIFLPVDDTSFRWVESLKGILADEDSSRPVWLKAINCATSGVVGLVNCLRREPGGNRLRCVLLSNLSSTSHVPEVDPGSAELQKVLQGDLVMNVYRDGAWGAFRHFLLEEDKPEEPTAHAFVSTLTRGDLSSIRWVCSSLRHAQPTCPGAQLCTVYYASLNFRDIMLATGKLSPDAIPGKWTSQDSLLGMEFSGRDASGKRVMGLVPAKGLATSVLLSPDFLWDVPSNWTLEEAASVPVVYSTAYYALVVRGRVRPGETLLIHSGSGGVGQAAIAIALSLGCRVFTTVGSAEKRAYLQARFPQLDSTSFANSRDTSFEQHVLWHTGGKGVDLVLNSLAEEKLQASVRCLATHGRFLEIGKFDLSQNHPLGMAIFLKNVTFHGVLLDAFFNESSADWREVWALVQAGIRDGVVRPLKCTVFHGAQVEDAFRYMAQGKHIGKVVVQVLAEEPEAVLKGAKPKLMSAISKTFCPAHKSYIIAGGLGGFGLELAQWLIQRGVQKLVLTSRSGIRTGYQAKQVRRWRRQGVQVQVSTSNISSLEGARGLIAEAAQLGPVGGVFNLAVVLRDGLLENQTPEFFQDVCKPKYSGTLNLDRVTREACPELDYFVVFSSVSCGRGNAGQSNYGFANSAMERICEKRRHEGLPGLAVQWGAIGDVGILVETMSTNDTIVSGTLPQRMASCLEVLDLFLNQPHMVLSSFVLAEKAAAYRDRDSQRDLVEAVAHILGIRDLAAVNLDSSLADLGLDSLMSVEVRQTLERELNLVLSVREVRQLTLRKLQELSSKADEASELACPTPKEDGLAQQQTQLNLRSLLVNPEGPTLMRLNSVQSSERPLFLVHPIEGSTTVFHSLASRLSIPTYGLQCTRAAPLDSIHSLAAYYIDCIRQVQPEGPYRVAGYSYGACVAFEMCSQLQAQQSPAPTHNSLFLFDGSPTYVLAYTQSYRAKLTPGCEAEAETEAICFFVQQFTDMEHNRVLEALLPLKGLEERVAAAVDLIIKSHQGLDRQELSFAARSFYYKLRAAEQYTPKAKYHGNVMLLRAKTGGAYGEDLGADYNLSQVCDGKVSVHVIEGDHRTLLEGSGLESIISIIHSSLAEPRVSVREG
Chain of Cytochrome P450 3A4 (P08684 whole entry): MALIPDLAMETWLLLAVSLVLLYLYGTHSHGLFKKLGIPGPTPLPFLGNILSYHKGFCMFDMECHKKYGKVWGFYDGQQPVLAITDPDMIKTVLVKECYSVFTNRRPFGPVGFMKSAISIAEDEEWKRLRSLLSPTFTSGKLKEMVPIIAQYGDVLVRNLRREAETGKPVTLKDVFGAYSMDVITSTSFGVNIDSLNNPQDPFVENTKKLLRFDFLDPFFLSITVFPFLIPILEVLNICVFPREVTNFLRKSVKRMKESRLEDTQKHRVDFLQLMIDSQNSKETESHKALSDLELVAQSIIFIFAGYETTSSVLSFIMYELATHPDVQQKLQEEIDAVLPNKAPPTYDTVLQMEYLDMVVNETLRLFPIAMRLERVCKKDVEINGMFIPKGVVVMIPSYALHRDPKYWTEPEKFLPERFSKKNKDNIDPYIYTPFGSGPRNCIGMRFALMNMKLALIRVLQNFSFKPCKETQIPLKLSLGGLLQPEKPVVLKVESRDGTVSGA
Chain of Cytochrome P450 2C9 (P11712 whole entry): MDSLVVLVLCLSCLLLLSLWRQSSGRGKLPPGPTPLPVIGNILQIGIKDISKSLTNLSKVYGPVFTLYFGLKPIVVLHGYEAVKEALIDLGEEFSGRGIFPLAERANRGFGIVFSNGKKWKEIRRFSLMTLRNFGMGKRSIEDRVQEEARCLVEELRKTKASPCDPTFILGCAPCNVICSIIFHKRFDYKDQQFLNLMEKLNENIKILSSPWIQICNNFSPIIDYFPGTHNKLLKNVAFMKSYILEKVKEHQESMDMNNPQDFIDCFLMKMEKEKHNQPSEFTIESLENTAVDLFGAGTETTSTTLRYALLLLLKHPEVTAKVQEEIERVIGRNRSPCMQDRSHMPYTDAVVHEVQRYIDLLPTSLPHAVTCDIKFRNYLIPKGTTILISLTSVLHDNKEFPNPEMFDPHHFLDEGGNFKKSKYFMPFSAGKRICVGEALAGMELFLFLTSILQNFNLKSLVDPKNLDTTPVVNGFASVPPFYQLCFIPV

COc1ccc(CCNC(=O)C[S+]([O-])Cc2nc(-c3ccc(C)cc3)oc2C)cc1OC (centres undefined)
EC50 [1]: > 112 µM (not active) | EC50 [2]: > 112 µM (not active)

O=C(CSc1ccc(-c2ccco2)nn1)c1ccccc1
EC50 [1]: > 112 µM (not active) | EC50 [2]: > 112 µM (not active)

O=[N+]([O-])c1cc(-n2cnnn2)ccc1N1CCC(Cc2ccccc2)CC1
AC50 [3]: 4.38 µM (active)

Cc1ccc(S(=O)(=O)N(C)c2ccc(C)c([N+](=O)[O-])c2)cc1
IC50 [4]: 18.8 µM (not active) | EC50 [5]: > 260 µM (inactive)

CC(C)C(=O)Nc1ncc(Cc2ccc(Cl)cc2)s1
IC50 [4]: 5.63 µM (not active)

Cn1cnc([N+](=O)[O-])c1Nc1ccccc1O
EC50 [1]: > 112 µM (not active) | EC50 [2]: > 112 µM (not active)

Cc1ccc(C(C(=O)NCC2CCCO2)N(C(=O)c2snc(C(N)=O)c2N)c2ccc(C)c(C)c2)o1 (centres undefined)
IC50 [6]: > 20 µM (inactive)

Cc1c(CCC(=O)NCCCn2ccnc2)c(=O)oc2c(C)c3occ(C(C)(C)C)c3cc12
CC50 [7]: 22.1 µM (active)

CCOC(=O)c1ccc(/N=C2/S/C(=C\c3cc(C)n(-c4cccnc4)c3C)C(=O)N2C)cc1
CC50 [7]: > 40 µM (active)

N#Cc1cccc(-c2ccc([C@@H]3[C@@H]4CN(C(=O)C5CCC5)C[C@H]3N4)cc2)c1
AC50 [8]: 3.71 µM (active)

CC(C)n1nc(C(=O)OCC(=O)c2c[nH]c3ccccc23)c2ccccc2c1=O
IC50 [9]: 27.3 µM (active) | IC50 [4]: 0.91 µM (not active)

CCCCNC(=S)N(C)/N=C/c1ccc2c(c1)OCO2
AC50 [10]: 2.04 µM (active) | CC50 [7]: > 40 µM (active)

N#Cc1cccc(-c2nc3cnc(Nc4ccccc4)nc3n(C[C@H]3CCCO3)c2=O)c1
AC50 [11]: 10 µM (inconclusive) | AC50 [12]: 2 µM (inconclusive) | AC50 [13]: 1 µM (inconclusive)

CCc1c(C2(O)CCCCC2)[nH]c2ccc(C(F)(F)F)cc12
AC50 [10]: 2.64 µM (active) | CC50 [7]: 27.1 µM (active) | EC50 [14]: 60.5 µM (active) | EC50 [15]: 8.44 µM (active) | EC50 [16]: > 120 µM (not active)

CN(C(=O)Nc1ccc(Cl)cc1Cl)[C@H]1c2cc(Br)ccc2OC[C@H]1CO
IC50 [17]: 11.3 µM (active)

CSCCC(NC(=O)c1ccccc1Cl)C(=O)NNC(=O)c1csc(N2CCOCC2)n1 (centres undefined)
IC50 [6]: > 20 µM (inactive)

C[C@@H]1CN([C@@H](C)CO)C(=O)c2c(c3ccccc3n2C)-c2ccccc2CO[C@H]1CN(C)Cc1cccc(C(=O)Nc2ccccc2N)c1
AC50 [8]: 2.81 µM (active)

CC(C)NC(=O)N1[C@H](C#N)[C@H](c2ccccc2-c2ccc(F)cc2)[C@@H]1CO
AC50 [8]: 3.57 µM (active)

CCCC#Cc1ccc(CC[C@H]2O[C@H]3CC[C@H](CO)O[C@H]3C[C@@H]2n2cc(C(C)(C)O)nn2)cc1
AC50 [8]: 16.8 µM (active)

O=C(Nc1ccccc1)c1nc[nH]c1C(=O)NCCCCNC(=O)c1nc[nH]c1C(=O)Nc1ccccc1
IC50 [9]: > 79 µM (inactive)

NC(=O)c1cccc(Nc2nc(C(N)COCc3ccccc3)cs2)n1 (centres undefined)
IC50 [9]: 19.8 µM (active)

CCCC(=O)Nc1cc(C(F)(F)F)ccc1N1CCOCC1
EC50 [1]: > 112 µM (not active) | EC50 [2]: > 112 µM (not active)

CC1CCN(c2nc3nonc3nc2Nc2ccc(F)cc2)CC1
IC50 [4]: 11.7 µM (not active)

Oc1nc(NCc2ccccc2)nc2c1CCCC2
IC50 [9]: 52.3 µM (inactive)

Cc1ccc(C2SCCN2C(=O)c2ccc([N+](=O)[O-])cc2)cc1 (centres undefined)
EC50 [1]: > 112 µM (not active) | EC50 [2]: > 112 µM (not active)

O=C(NCC1CCCO1)c1cc([N+](=O)[O-])ccc1N1CCC(Cc2ccccc2)CC1 (centres undefined)
AC50 [3]: 4.28 µM (active)

CC(/C=C/c1ccc(Cl)o1)=C\C(=O)O
EC50 [1]: > 112 µM (not active) | EC50 [2]: > 112 µM (not active)

FC(F)(F)c1nnc2ccc(NCc3ccccc3)nn12
IC50 [4]: 2.23 µM (active)

Oc1ccccc1C1=NN(c2ccccc2)C(c2ccccc2)C1 (centres undefined)
AC50 [10]: 1.29 µM (active) | AC50 [3]: 4.3 µM (active) | EC50 [18]: 4.06 µM (active) | EC50 [19]: 6.93 µM (active)

C#CCNC(=O)C1=C[C@H](c2cn(C(C)=O)c3ccccc23)C[C@H](OCc2ccc(CO)cc2)O1
IC50 [6]: > 20 µM (inactive)

CCCc1nc2oc(C(=O)OCC)c(N)c2c2c1COC(C)(C)C2
CC50 [7]: > 40 µM (active)

Cc1ccc(-c2noc(CCC(=O)Nc3ccccc3N3CCN(C)CC3)n2)cc1
IC50 [6]: > 20 µM (inactive)

CCOC(=O)C1CCN(C(c2cc3c(C)ccc(C)c3nc2O)c2nnnn2C2CCCCC2)CC1 (centres undefined)
IC50 [9]: > 79 µM (inactive)

O=C(COC(=O)Cc1nnc(O)c2ccccc12)Nc1ccc(Cl)cn1
IC50 [9]: > 79 µM (inactive)

COC(=O)[C@@]1(Cc2ccccc2)[C@H]2c3cc(C(=O)N4CCCC4)n(CCN4CNCC4=O)c3C[C@H]2CN1C(=O)c1ccccc1
AC50 [20]: 1.58 µM (inconclusive) | AC50 [21]: 39.8 µM (inconclusive) | AC50 [12]: 25.1 µM (inconclusive) | AC50 [13]: 39.8 µM (inconclusive)

COc1ccc(/N=C/c2cc(Cc3ccccc3Cl)cc([N+](=O)[O-])c2O)cc1OC
AC50 [3]: 1.6 µM (active)

COCCNC(=O)CSc1nc(-c2ccc(OC)c(OC)c2)cc(C(F)(F)F)n1
EC50 [1]: > 112 µM (not active) | EC50 [2]: > 112 µM (not active)

C[C@H]1CN([C@@H](C)CO)C(=O)c2c(c3ccccc3n2C)-c2ccccc2CO[C@@H]1CN(C)Cc1cccc(O)c1
AC50 [8]: 3.24 µM (active)

CN(C)S(=O)(=O)c1ccc(Cl)c(NC(=O)CSc2nc3ccccc3c(=O)n2CCCN2CCOCC2)c1
EC50 [1]: > 112 µM (not active) | EC50 [2]: 17.8 µM (active)

CCC(=O)N(C)CCc1cc2c(c(OC)c1/C=N/NC(=O)c1ccccc1O)OCO2
EC50 [1]: > 112 µM (not active) | EC50 [2]: > 112 µM (not active)

Cc1cc(C(=O)N/N=C/c2c(CO)cnc(C)c2O)c2ccccc2n1
IC50 [9]: > 79 µM (inactive)

Cc1cnc(C(=O)OCC(=O)Nc2ccc(Cl)cc2Cl)cn1
EC50 [1]: > 112 µM (not active) | EC50 [2]: 14.8 µM (active)

O=C(CCc1nc(O)c2ccccc2n1)NNC(=O)COc1cccc(F)c1
IC50 [9]: > 79 µM (inactive)

COc1ccccc1N(C)S(=O)(=O)c1ccc(C(=O)Nc2ccc3nc(C)sc3c2)cc1
CC50 [7]: 38.1 µM (active)

From ChEMBL document CHEMBL1201862, “PubChem BioAssay data set” (2004)
